Here are results for one molecule from EP0063946A1, “Diagnosis of kidney function” (priority 1981, dated 1982).

The nature of data set [1]: Animal biodistribution and clearance studies in rats. Type of data set: in vivo. As to the method: Samples for animal biodistribution studies were administered 1-2 hours post preparation.
Comparative data for Hippuran, Tc-99m TDG and Tc-99m DTPA in rats is set out in Table II.

The conditions of data set [2]: background statement; cited from earlier work.

Structures are written as SMILES.

Molecule `O=C(O)CNC(=O)c1ccccc1[131I]` [Hippuran, sodium iodohippurate] came in with a Clearance half time in data set [1] of 10.4 min. Moreover, the “% in urine at 30 min p.i.” value in data set [1] (30 min p.i.) was determined as 82.6%. Moreover, in data set [1] (2 hour dissection), the “2 hour dissection (% injected dose) Bladder” value was 93.0 % injected dose, the “2 hour dissection (% injected dose) Intestine” value was determined as 2.5 % injected dose, the “2 hour dissection (% injected dose) Kidney” value was found to be 0.2 % injected dose and the “2 hour dissection (% injected dose) Liver” value came to 0.2 % injected dose. In data set [2], the “removed from the blood in a single pass through the kidney” value is recorded as “About 80%”.
